{
  "source": "ChEMBL document CHEMBL1201862",
  "about": "“PubChem BioAssay data set” (2004)",
  "key": {"[1]": {"target": "Sphingosine 1-phosphate receptor 2 (Homo sapiens, UniProt O95136)", "sequence (O95136 whole entry)": "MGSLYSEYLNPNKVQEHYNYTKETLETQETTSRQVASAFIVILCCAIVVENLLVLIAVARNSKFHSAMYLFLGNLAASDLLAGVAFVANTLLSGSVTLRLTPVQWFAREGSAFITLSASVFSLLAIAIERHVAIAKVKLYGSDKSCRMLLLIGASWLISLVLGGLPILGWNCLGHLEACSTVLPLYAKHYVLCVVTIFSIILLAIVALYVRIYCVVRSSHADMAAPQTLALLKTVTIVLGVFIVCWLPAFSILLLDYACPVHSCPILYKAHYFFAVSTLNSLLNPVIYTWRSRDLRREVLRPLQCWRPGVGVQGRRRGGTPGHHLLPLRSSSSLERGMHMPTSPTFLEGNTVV", "experiment": "Dose Response Cell Based Assay for Agonists of the S1P2 Receptor of Purchased Analogues. [Related pubchem assays: 729, 843, 854, 736 ]", "assay_type": "functional"}, "[2]": {"experiment": "NIH-3T3 fibroblast cytotoxicity, dose response, cytotoxicity control, cell-based, fluorescence, Alamar Blue, secondary assay (AID 2327);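 also: NIH-3T3 mouse fibroblasts cultured with fluconazole at 8 µg/mL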", "assay_type": "functional"}, "[3]": {"experiment": "Counterscreen for IDE inhibitors: Luminescence-based cell-based high throughput dose response assay to identify compounds that are cytotoxic to HEK cells. [Related pubchem assays: 434962 (Primary screen (IDE inhibitors in singlicate)), 449730 (Counterscreen (Cytotoxicity in triplicate)), 435028 (Confirmation (IDE inhibitors in triplicate)) …", "assay_type": "functional", "details": "HEK293"}, "[4]": {"experiment": "fluconazole-exposed Candida albicans growth modulators – fluorescence, retest, confirmation (AID 2467)", "assay_type": "functional, cell-based"}, "[5]": {"experiment": "viability of PTEN-deleted HCT116 cells – cell-based, HCT116 PTEN knockout, dose response (AID 1047);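 also: cells exposed to compound for 60 hours before readout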", "assay_type": "functional"}, "[6]": {"target": "T1, Insulin-degrading enzyme (Homo sapiens, UniProt P14735)", "T1 sequence (P14735 whole entry)": "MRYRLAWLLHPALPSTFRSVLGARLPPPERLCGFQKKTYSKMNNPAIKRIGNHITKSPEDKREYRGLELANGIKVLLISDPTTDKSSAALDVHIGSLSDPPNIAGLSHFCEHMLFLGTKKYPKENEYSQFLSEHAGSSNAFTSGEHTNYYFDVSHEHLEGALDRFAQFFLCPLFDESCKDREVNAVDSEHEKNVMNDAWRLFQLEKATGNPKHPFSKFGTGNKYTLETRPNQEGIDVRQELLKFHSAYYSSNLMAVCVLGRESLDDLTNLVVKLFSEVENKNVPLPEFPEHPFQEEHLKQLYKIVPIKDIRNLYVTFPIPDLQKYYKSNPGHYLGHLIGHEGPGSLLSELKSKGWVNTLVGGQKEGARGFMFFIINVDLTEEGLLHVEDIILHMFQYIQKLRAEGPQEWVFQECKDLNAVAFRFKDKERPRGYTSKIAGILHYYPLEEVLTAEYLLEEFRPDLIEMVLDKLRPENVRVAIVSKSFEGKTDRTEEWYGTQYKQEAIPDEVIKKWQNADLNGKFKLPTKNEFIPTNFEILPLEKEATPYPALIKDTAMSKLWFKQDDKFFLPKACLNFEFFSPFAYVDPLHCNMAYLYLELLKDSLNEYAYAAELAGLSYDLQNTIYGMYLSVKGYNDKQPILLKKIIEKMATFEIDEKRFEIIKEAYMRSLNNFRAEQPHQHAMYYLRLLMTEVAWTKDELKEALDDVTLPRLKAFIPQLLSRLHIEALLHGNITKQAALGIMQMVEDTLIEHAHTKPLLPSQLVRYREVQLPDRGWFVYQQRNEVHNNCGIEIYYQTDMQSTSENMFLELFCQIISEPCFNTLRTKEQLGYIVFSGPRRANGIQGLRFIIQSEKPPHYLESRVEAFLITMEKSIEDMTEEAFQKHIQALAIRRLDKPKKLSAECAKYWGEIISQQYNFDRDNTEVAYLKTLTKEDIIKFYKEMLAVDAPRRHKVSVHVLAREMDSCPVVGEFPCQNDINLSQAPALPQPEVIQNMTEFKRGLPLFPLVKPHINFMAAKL", "experiment": "Dose Response: Fluorescence polarization-based cell-based high throughput dose response assay for inhibitors of insulin-degrading enzyme (IDE). [Related pubchem assays: 434962 (Primary screen (IDE inhibitors in singlicate)), 449730 (Counterscreen (Cytotoxicity in triplicate)), 435028 (Confirmation (IDE inhibitors in triplicate)), 434984 (Summary …", "assay_type": "functional"}, "[7]": {"experiment": "viability of HCT116 lacking mutant beta-catenin – cell-based, human colon tumor, dose response (AID 1045);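 also: cells exposed to compound for 60 hours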", "assay_type": "functional"}, "[8]": {"target": "T2, Protein skinhead-1 (Caenorhabditis elegans, UniProt P34707)", "T2 sequence (P34707 whole entry)": "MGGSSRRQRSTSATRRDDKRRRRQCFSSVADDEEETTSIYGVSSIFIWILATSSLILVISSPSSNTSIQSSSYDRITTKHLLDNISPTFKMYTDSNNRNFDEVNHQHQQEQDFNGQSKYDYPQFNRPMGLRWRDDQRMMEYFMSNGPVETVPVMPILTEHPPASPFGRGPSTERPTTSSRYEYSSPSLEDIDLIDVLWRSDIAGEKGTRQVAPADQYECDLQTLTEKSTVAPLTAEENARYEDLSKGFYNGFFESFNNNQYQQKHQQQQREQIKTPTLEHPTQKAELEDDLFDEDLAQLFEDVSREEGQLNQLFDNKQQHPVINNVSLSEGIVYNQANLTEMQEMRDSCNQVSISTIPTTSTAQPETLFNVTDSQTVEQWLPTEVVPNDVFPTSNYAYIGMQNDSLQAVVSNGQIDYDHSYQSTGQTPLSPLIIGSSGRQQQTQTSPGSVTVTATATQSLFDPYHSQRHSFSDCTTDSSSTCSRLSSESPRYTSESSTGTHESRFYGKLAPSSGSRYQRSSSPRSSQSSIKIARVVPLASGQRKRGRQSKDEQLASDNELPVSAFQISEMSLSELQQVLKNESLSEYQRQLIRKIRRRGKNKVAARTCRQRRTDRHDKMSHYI", "assay_type": "functional"}, "[9]": {"target": "Glyceraldehyde-3-phosphate dehydrogenase (Homo sapiens, UniProt P04406)", "sequence (P04406 whole entry)": "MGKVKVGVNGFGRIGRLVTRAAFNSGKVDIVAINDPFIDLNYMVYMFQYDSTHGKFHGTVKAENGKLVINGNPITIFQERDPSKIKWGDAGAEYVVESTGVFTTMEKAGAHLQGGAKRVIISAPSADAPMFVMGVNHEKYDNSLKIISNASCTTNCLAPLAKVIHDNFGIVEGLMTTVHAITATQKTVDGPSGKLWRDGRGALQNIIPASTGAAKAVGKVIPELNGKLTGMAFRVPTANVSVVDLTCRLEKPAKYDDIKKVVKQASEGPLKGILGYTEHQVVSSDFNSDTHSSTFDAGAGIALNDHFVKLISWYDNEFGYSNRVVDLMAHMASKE"}, "[10]": {"target": "T3, Bcl-2-related protein A1 (Mus musculus, UniProt Q07440)", "T3 sequence (Q07440 whole entry)": "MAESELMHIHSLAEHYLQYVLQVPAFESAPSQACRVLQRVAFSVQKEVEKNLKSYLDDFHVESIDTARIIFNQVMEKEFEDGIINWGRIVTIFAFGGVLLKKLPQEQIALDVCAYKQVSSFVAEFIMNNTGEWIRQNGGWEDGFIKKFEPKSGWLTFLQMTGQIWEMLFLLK", "experiment": "small-molecule antagonists of Bfl-1/BH3 interaction – biochemical, TR-FRET, mouse Bfl-1, confirmation (AID 621);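 also: TR-FRET binding of GST-Bfl-1 to FITC-labelled Bid peptide via terbium antibody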"}, "[11]": {"target": "T3, Bcl-2-related protein A1", "experiment": "Bfl-1 binding inhibitors, SAR follow-up, biochemical, fluorescence polarization (AID 1070)"}, "[12]": {"experiment": "viability inhibitors of stage V gametocytes – luminescence, dose response (AID 1117278);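 also: gametocytes exposed to compound for 24 hours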", "assay_type": "functional, cell-based"}, "[13]": {"experiment": "viability loss in human Jurkat cells – cell-based, luminescence, cytotoxicity control for P. falciparum gametocyte viability project, dose response (AID 1117277);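 also: potency reflects loss of cellular ATP meaning fewer viable cells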", "assay_type": "functional"}, "[14]": {"experiment": "Trypanosoma cruzi growth suppression in host cells – NIH3T3 host cells, beta-gal luminescence, confirmation (AID 2044);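 also: intracellular parasites grown in NIH/3T3 mouse fibroblasts as host cells; luminescent beta-galactosidase reporter signal from transgenic T. cruzi replicating inside host cells; inhibitors lower the luminescence signal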", "assay_type": "functional, cell-based"}, "[15]": {"experiment": "NIH3T3 cell viability loss – ATP luminescence, mouse fibroblasts, counter-screen, dose response (AID 2010);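 also: cells exposed to compound for about 90 hours before reading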", "assay_type": "functional, cell-based"}, "[16]": {"experiment": "cells"}, "[17]": {"target": "Cytochrome P450 2D6 (Homo sapiens, UniProt P10635)", "sequence (P10635 whole entry)": "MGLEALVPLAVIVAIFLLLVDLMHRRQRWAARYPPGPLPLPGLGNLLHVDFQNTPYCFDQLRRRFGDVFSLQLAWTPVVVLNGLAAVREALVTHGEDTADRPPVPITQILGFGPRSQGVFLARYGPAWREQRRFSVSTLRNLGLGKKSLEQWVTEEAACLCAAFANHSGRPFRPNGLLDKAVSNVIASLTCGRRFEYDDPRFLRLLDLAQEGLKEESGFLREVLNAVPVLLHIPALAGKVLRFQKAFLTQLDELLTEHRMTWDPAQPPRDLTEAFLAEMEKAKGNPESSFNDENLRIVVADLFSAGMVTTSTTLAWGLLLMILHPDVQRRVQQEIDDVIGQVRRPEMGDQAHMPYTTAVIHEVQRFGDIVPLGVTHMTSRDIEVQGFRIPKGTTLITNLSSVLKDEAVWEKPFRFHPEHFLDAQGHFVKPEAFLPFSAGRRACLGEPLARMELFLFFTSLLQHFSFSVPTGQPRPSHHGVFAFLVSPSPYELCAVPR", "experiment": "qHTS Assay for Inhibitors and Substrates of Cytochrome P450 2D6. [Related pubchem assays: 410 ]", "assay_type": "ADME", "details": "read-out: Potency"}, "[18]": {"experiment": "viability of uninfected HEp-2 cells – cell-based, HTS, cytotoxicity control for RSV inhibitor project, dose response (AID 2410)", "assay_type": "functional", "details": "human respiratory syncytial virus"}, "[19]": {"experiment": "Luminescence Cell-Based Dose Confirmation HTS to Identify Activators of 5'UTR Stem-Loop Driven Alpha-Synuclein mRNA Translation in H4 Neuroglioblastoma Cells. [Related pubchem assays: 1829 (Project Summary), 1814 (Primary HTS)]", "assay_type": "functional"}, "[20]": {"experiment": "Luminescence Cell-Based Dose Response HTS to Identify Activators of Luciferase Translation or Activity in H4 […] Cells. [Related pubchem assays: 1829 (Project Summary), 1814 (Primary HTS)]", "assay_type": "functional"}, "[21]": {"test_system": "H4", "experiment": "Luminescence Cell-Based Dose Response HTS to Identify Activators of 5'UTR Stem-Loop Driven Prion Protein mRNA Translation in H4 Neuroglioblastoma Cells. [Related pubchem assays: 1829 (Project Summary), 1814 (Primary HTS)]", "assay_type": "functional", "details": "Homo sapiens"}, "[22]": {"target": "T4, Estrogen receptor (Homo sapiens, UniProt P03372)", "T4 sequence (P03372 whole entry)": "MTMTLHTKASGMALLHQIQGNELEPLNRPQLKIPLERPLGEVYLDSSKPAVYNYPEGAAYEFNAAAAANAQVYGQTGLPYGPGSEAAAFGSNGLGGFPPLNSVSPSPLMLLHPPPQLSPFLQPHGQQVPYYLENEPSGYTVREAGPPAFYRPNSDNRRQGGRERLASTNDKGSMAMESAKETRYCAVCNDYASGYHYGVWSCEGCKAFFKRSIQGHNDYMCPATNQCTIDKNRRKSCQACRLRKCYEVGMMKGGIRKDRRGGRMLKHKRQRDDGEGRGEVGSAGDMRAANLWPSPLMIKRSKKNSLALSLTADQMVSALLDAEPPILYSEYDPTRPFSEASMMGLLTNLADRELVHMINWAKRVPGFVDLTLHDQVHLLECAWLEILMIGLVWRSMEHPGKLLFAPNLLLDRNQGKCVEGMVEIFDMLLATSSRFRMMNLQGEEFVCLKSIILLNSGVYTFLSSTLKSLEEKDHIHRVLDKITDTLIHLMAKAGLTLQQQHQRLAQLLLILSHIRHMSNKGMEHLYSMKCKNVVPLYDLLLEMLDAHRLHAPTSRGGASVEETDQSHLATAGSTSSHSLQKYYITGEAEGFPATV", "experiment": "ERα coactivator recruitment enhancers – biochemical, TR-FRET, ERα LBD, dose response (AID 737)"}},
  "note": "Active and inactive are the calls of the source.",
  "data": [
    {"smiles": "Cc1cc(C(=O)CSc2nnc(C3CC3)n2C)c(C)n1Cc1ccccc1", "values": [
      {"measurement": "EC50", "setting": "[1]", "result": "> 30 µM (not active)"}
    ]},
    {"smiles": "S=C(Nc1ccccc1)Nc1nc2ccccc2n1CCOc1ccccc1", "values": [
      {"measurement": "EC50", "setting": "[2]", "result": "8.47 µM (inconclusive)"},
      {"measurement": "IC50", "setting": "[3]", "result": "15.9 µM (not active)"},
      {"measurement": "EC50", "setting": "[4]", "result": "2.08 µM (active)"},
      {"measurement": "EC50", "setting": "[5]", "result": "17.4 µM (active)"},
      {"measurement": "IC50", "setting": "[6]", "result": "> 55.9 µM (not active)"},
      {"measurement": "EC50", "setting": "[7]", "result": "15.9 µM (active)"},
      {"measurement": "IC50", "setting": "[8]", "result": "> 100 µM (inactive)"}
    ]},
    {"smiles": "O=C1C(Cl)=C(Cl)C(=O)N1c1ccc(Cl)cc1Cl", "values": [
      {"measurement": "IC50", "setting": "[9]", "result": "> 100 µM (not active)"},
      {"measurement": "IC50", "setting": "[10]", "result": "0.74 µM (active)"},
      {"measurement": "IC50", "setting": "[11]", "result": "1.64 µM (active)"}
    ]},
    {"smiles": "O=[N+]([O-])c1cccc(S(=O)(=O)c2ccc(N3CCCCC3)c([N+](=O)[O-])c2)c1", "values": [
      {"measurement": "IC50", "setting": "[12]", "result": "> 109 µM (inactive)"},
      {"measurement": "IC50", "setting": "[13]", "result": "> 83.3 µM (inactive)"}
    ]},
    {"smiles": "COC(=O)c1c(NC(=O)Cn2cnc([N+](=O)[O-])n2)sc2c1CCC(C)C2", "note": "(stereo not drawn)", "values": [
      {"measurement": "EC50", "setting": "[14]", "result": "< 0.1 µM (active)"},
      {"measurement": "EC50", "setting": "[15]", "result": "> 60 µM (inconclusive)"},
      {"measurement": "EC50", "setting": "[16]", "result": "0.112 µM (active)"}
    ]},
    {"smiles": "Cc1cc(C(=O)CN2C(=O)NC3(CCOc4ccccc43)C2=O)c(C)n1Cc1ccccc1", "note": "(stereo not drawn)", "values": [
      {"measurement": "EC50", "setting": "[1]", "result": "> 30 µM (not active)"}
    ]},
    {"smiles": "Cc1nc(/N=N\\c2cc(S(=O)(=O)O)c3cc([N+](=O)[O-])cc(S(=O)(=O)O)c3c2)c(COP(=O)(O)O)c(C=O)c1O", "values": [
      {"measurement": "AC50", "setting": "[17]", "result": "20 µM (inconclusive)"}
    ]},
    {"smiles": "C[C@H]1CCC[C@@H](O)CCC/C=C/c2cc(O)cc(O)c2C(=O)O1", "values": [
      {"measurement": "CC50", "setting": "[18]", "result": "8.71 µM (active)"},
      {"measurement": "EC50", "setting": "[19]", "result": "15.3 µM (active)"},
      {"measurement": "EC50", "setting": "[20]", "result": "> 120 µM (not active)"},
      {"measurement": "EC50", "setting": "[21]", "result": "> 120 µM (not active)"},
      {"measurement": "EC50", "setting": "[22]", "result": "9.22 µM (active)"}
    ]}
  ]
}
